What was measured:
[1] = system: wild-type (WT) murine embryonic fibroblasts (MEFs); assay: microRNA-seq of EVs from WT MEFs treated with drug, compared with non-treated WT MEFs; format: cell-based, mouse; details: for ISRIB Direction Same as dE?: EVs of WT MEFs
Method: In addition to proteomic analysis, total RNA-seq and microRNA-seq was performed on RNA isolated in parallel from the EV samples of Cohort 2. As with the proteomic analysis, one biological replicate was prepared from 3 distinct biological clonal cell lines for each genotype. Here, EVs were isolated from conditioned cell culture media by 18 hour ultracentrifugation at 100,000 g. RNA was extracted using the Qiagen miRNeasy Micro Kit (Cat. No. 217084) according to the manufacturer's protocol. Two RNA fractions were extracted from each sample, one enriched in coding and non-coding RNA species>200 nt (“Total RNA” fraction) and one enriched for small RNAs<200 nt (“miRNA” fraction).
RNA samples were then submitted to the Duke Sequencing and Genomic Technologies shared resource for further quality control and sequencing. Samples were assessed for concentration and integrity by Qubit and Fragment Analyzer. The miRNA fractions were 4.16 ng/μL-47.57 ng/μL and total RNA fractions were 3.8 ng/μL-43.6 ng/μL. The small RNA library was prepared using the QIAseq miRNA Library Kit (Cat No./ID: 331505) and sequenced on the Illumina NextSeq 500 High-Output platform with 75 bp single-reads. The total RNA library was prepared using the Illumina TruSeq Stranded Total RNA-seq Kit with Ribozero Gold ribosomal RNA reduction and sequenced on the Illumina NovaSeq 6000 S1 platform with 100 bp paired-end reads. Sequencer lane pooling and read depth are attached in the Excel data summary (See “RNA QC” Tab).
Data processing and analysis were performed in collaboration with the Duke Genomic Analysis and Bioinformatics shared resource. RNA-seq data was processed using the TrimGalore toolkit (http://www.bioinformatics.babraham.ac.uk/projects/trim_galore), which employs Cutadapt(Martin M. (2011) EMBnet.journal. 17(1):10-12) to trim low quality bases and Illumina sequencing adapters from the 3′ end of the reads. Only reads that were 20 nt or longer after trimming were kept for further analysis. Reads were mapped to the mouse genome and transcriptome (Kersey P J, et al. (2012) Nucleic Acids Res. 40(Database issue):D91-97) using the STAR RNA-seq alignment tool (Dobin A, et al. (2013). Bioinformatics. 29(1):15-21). If the reads mapped to a single genomic location, then they were kept for subsequent analysis. Gene counts were compiled using the HTSeq tool (http://www-huber.embl.de/users/anders/HTSeq/). Only genes that had at least 10 reads in any given library were used in subsequent analysis. Normalization and differential expression was carried out using the DESeq26 Bioconductor (Huber W, et al. (2015) Nat Methods. 12(2):115-121) package with the R statistical programming environment (www.r-project.org). The false discovery rate was calculated to control for multiple hypothesis testing and p-values were adjusted to an FDR of 5%.
694 miRNAs were initially examined with respect to QC, genotype, RTV effects, and ISRIB effects. This subset was the “Full miRNA” subset. FIG. 9A and FIG. 9B show the RTV effect on EV composition in DYT1 cells compared to WT cells for 279 miRNAs, respectively.

WT TorsinA = details: cited from earlier work
[2] = system: DYT1 knockin (Tor1a^delGAG/+) murine embryonic fibroblasts (MEFs); assay: Untargeted LC/MS/MS proteomics of EVs from DYT1 MEFs exposed 24 hours to drug, compared with untreated DYT1 (Het) MEFs; format: cell-based, mouse
[3] = ISRIB-treated vs non-treated WT MEF EVs

## O=C(COc1ccc(Cl)cc1)NC1CCC(NC(=O)COc2ccc(Cl)cc2)CC1 (stereo not shown) [ISRIB]
[1]; [3]
  mmu-miR-147-5p: ISRIB Direction Same as dE?: yes
  mmu-miR-147-5p: ISRIBvWT Z Score: −0.31
  mmu-miR-181a-1-3p: ISRIBvWT Z Score: −0.20
  mmu-miR-331-5p: ISRIBvWT Z Score: 0.56
  mmu-miR-668-3p: ISRIBvWT Z Score: −1.49
  mmu-miR-1930-5p: ISRIB Direction Same as dE?: yes
  mmu-miR-1930-5p: ISRIBvWT Z Score: 0.71
  mmu-miR-1943-5p: ISRIBvWT Z Score: −1.07
  mmu-miR-1955-5p: ISRIBvWT Z Score: 1.21
  mmu-miR-3072-5p: ISRIBvWT Z Score: 0.00
  mmu-miR-3076-3p: ISRIBvWT Z Score: 0.25
  mmu-miR-3088-3p: ISRIBvWT Z Score: −0.45
  mmu-miR-6936-3p: ISRIBvWT Z Score: −0.38
  mmu-miR-7224-3p: ISRIB Direction Same as dE?: yes
  mmu-miR-7224-3p: ISRIBvWT Z Score: −1.07
  mmu-miR-467d-3p: ISRIB Direction Same as dE?: yes
  mmu-miR-467d-3p: ISRIBvWT Z Score: −0.71
[1]; mmu-let-7f-5p
  ISRIB Direction Same as dE?: yes
[1]; mmu-let-7i-5p
  ISRIB Direction Same as dE?: yes
[1]; mmu-miR-30e-5p
  ISRIB Direction Same as dE?: yes
[1]; mmu-miR-19b-3p
  ISRIB Direction Same as dE?: yes
[1]; mmu-miR-22-3p
  ISRIB Direction Same as dE?: yes
[1]; mmu-miR-26b-Sp
  ISRIB Direction Same as dE?: yes
[1]; mmu-miR-30a-5p
  ISRIB Direction Same as dE?: yes
[1]; mmu-miR-30c-5p
  ISRIB Direction Same as dE?: yes
[1]; mmu-miR-31-5p
  ISRIB Direction Same as dE?: yes
[1]; mmu-miR-34a-5p
  ISRIB Direction Same as dE?: yes
[1]; mmu-miR-34c-5p
  ISRIB Direction Same as dE?: yes
[1]; mmu-miR-93-5p
  ISRIB Direction Same as dE?: yes
[1]; mmu-miR-96-5p
  ISRIB Direction Same as dE?: yes
[1]; mmu-miR-103-3p
  ISRIB Direction Same as dE?: yes
[1]; mmu-miR-125b-1-3p
  ISRIB Direction Same as dE?: yes
[1]; mmu-miR-130b-3p
  ISRIB Direction Same as dE?: yes
[1]; mmu-miR-135a-5p
  ISRIB Direction Same as dE?: yes
[1]; mmu-miR-140-3p
  ISRIB Direction Same as dE?: yes
[1]; mmu-miR-148a-3p
  ISRIB Direction Same as dE?: yes
[1]; mmu-miR-182-5p
  ISRIB Direction Same as dE?: yes
[1]; mmu-miR-183-5p
  ISRIB Direction Same as dE?: yes
[1]; mmu-miR-187-3p
  ISRIB Direction Same as dE?: yes
[1]; mmu-miR-192-5p
  ISRIB Direction Same as dE?: yes
[1]; mmu-miR-199a-3p
  ISRIB Direction Same as dE?: yes
[1]; mmu-miR-199b-3p
  ISRIB Direction Same as dE?: yes
[1]; mmu-miR-296-3p
  ISRIB Direction Same as dE?: yes
[1]; mmu-miR-298-5p
  ISRIB Direction Same as dE?: yes
[1]; mmu-miR-344-3p
  ISRIB Direction Same as dE?: yes
[1]; mmu-miR-362-3p
  ISRIB Direction Same as dE?: yes
[1]; mmu-miR-362-5p
  ISRIB Direction Same as dE?: yes
[1]; mmu-miR-532-5p
  ISRIB Direction Same as dE?: yes
[1]; mmu-miR-542-5p
  ISRIB Direction Same as dE?: yes
[1]; mmu-miR-671-5p
  ISRIB Direction Same as dE?: yes
[1]; mmu-miR-1291
  ISRIB Direction Same as dE?: yes
[1]; mmu-miR-3535
  ISRIB Direction Same as dE?: yes
[1]; mmu-miR-5121
  ISRIB Direction Same as dE?: yes
[1]; mmu-miR-30h-5p
  ISRIB Direction Same as dE?: yes
[1]; mmu-miR-344d-3p
  ISRIB Direction Same as dE?: yes
WT TorsinA
  subcellular localization of WT TorsinA: alter the normal subcellular localization of WT TorsinA in a way that was more similar to the distribution of dE TorsinA in DYT1

## O=C(/C=C/c1ccccc1)NC(NC(=S)Nc1cccc2cccnc12)C(Cl)(Cl)Cl (stereo not shown) [SAL, Salubrinal]
[2]; EV protein: ATP- binding cassette sub-family [?] member 1
  SAL Direction Opposite ISRIB?: yes
[2]; EV protein: Nerine arginine-rich splicing factor [?]
  SAL Direction Opposite ISRIB?: yes

— patent publication US20230332232A1, “COMPOSITIONS AND METHODS FOR DIAGNOSING AND TREATING A DYSTONIA” (Duke University, priority 2020, published 2023)
